In assay [1] the target is T1, VHL (Homo sapiens, UniProt P40337). As to the kind of experiment: WaterLOGSY and saturation transfer difference (STD) NMR binding. As to conditions: FIG. 2.
The target of assay [2] is T1, VHL. As to the kind of experiment: Fluorescence polarization competition assay (HIF-1α peptide FP displacement). In general terms: Polarisation of emitted light reports the rotation of a fluorescent probe.

Here are results for 31 molecules from US20190127359A1, “Compounds & Methods for the Enhanced Degradation of Targeted Proteins & Other Polypeptides by an E3 Ubiquitin Ligase” (YALE UNIVERSITY, priority 2012, published 2019).

With `O=C(O)[C@@H]1C[C@@H](O)CN1` [L-Hyp], on VHL [1], the “binding to VHL by WaterLOGSY NMR spectroscopy” value is “not”.

For orientation: IC50 means the concentration at which inhibition is half-maximal. A higher IC50 goes with lower potency. At VHL [2] (IC50 (μM) 10% DMSO, 10% DMSO), `O=C(NCc1cccc(Cl)c1)[C@@H]1C[C@@H](O)CN1S(=O)(=O)c1cccc([N+](=O)[O-])c1` [VL013] showed a 50% inhibitory concentration (IC50) of 240 µM. Same read-out and setting: the value for `Cc1cc(CC(=O)N2C[C@H](O)C[C@H]2C(=O)NCc2ccc(Br)cc2)on1` [VL029] was 24.9 µM; that for `Cc1cc(CC(=O)N2C[C@H](O)C[C@H]2C(=O)NCc2cccc3ccccc23)on1` [VL086] was 168 µM.

Regarding `Cc1cc(CC(=O)N2C[C@H](O)C[C@H]2C(=O)NCc2ccc(-c3ncon3)cc2)on1` [VL131], the IC50 was determined as 19 µM on VHL [2] (IC50 (μM) 1% DMSO, 1% DMSO) and 8 µM at VHL [2] (IC50 (μM) 10% DMSO, 10% DMSO). In the same order, the values of `Cc1cc(CC(=O)N2C[C@H](O)C[C@H]2C(=O)OCc2ccc(-c3ccccc3)cc2)on1` [VL142] are greater than 1000 µM and 780 µM. With `N#Cc1ccc(CC(=O)N2C[C@H](O)C[C@H]2C(=O)NCc2ccc(Cl)cc2)cc1` [VL056], the half-inhibitory concentration (IC50) on VHL [2] (IC50 (μM) 10% DMSO, 10% DMSO) stood at 939 µM. Molecule `Cc1cc(CC(=O)N2C[C@H](O)C[C@H]2C(=O)NCc2c[nH]c3ccccc23)on1` [VL109] had an IC50 at VHL [2] (IC50 (μM) 10% DMSO, 10% DMSO) of 349 µM. In turn, `O=C(NCc1ccc(Cl)cc1)[C@@H]1C[C@@H](O)CN1C(=O)c1ccc([N+](=O)[O-])c(O)c1` [VL084] yielded a concentration for half-maximal inhibition (IC50) on VHL [2] (IC50 (μM) 10% DMSO, 10% DMSO) of 460 µM. The IC50 values of the last two molecules are within 1.5-fold of each other.

In turn, `Cc1cc(CC(=O)N2C[C@H](O)C[C@H]2C(=O)N[C@@H](C)c2ccccc2)on1` [VL032] had a 50% inhibitory concentration (IC50) at VHL [2] (IC50 (μM) 10% DMSO, 10% DMSO) of 639 µM. The IC50 values of the last two molecules are within 1.5-fold of each other.

Take `Cc1cc(CC(=O)N2C[C@H](O)C[C@H]2C(=O)NCc2ccc(-c3ocnc3C)cc2)on1` [VL117]: the IC50 at VHL [2] (IC50 (μM) 1% DMSO, 1% DMSO) stood at 13 µM; on VHL [2] (IC50 (μM) 10% DMSO, 10% DMSO) it was 5 µM.

`O=C(NCc1ccc(Cl)cc1)[C@@H]1C[C@@H](O)CN1C(=O)Cc1cccc(Br)c1` [VL055]: the IC50 at VHL [2] (IC50 (μM) 10% DMSO, 10% DMSO) amounted to 910 µM. The molecule `O=C(NCc1ccc(Cl)cc1)[C@@H]1C[C@@H](O)CN1C(=O)c1cc(C2CC2)on1` [VL061] registered an IC50 on VHL [2] (IC50 (μM) 10% DMSO, 10% DMSO) of 419 µM. As to `Cc1cc(CC(=O)N2C[C@H](O)C[C@H]2C(=O)NCc2ccc(-c3ccccc3)cc2)on1` [VL014], the IC50 on VHL [2] (IC50 (μM) 10% DMSO, 10% DMSO) stood at 4.7 µM. Against the preceding molecule, the IC50 is about 89-fold lower.

In turn, `O=C(NCc1ccc(Cl)cc1)[C@@H]1C[C@@H](O)CN1C(=O)c1cc(-c2ccccc2)on1` [VL060] gave an IC50 on VHL [2] (IC50 (μM) 10% DMSO, 10% DMSO) greater than 1000 µM. For `NS(=O)(=O)c1ccc(C(=O)N2C[C@H](O)C[C@H]2C(=O)NCc2ccc(Cl)cc2)cc1` [VL082], the concentration for half-maximal inhibition (IC50) at VHL [2] (IC50 (μM) 10% DMSO, 10% DMSO) amounted to 29 µM. This lies in the double-digit micromolar range. The same measure, in the same setting: the value for `O=C(NCc1ccc(Cl)cc1)[C@@H]1C[C@@H](O)CN1C(=O)Cc1ccncc1` [VL062] was greater than 1000 µM. For the molecule `Cc1cc(CC(=O)N2C[C@H](O)C[C@H]2C(=O)NCc2ccc(-c3cscn3)cc2)on1` [VL154], the IC50 at VHL [2] (IC50 (μM) 1% DMSO, 1% DMSO) is 77 µM; on VHL [2] (IC50 (μM) 10% DMSO, 10% DMSO) it was 118 µM. On VHL [2] (IC50 (μM) 10% DMSO, 10% DMSO), `O=C(NCc1ccc(Cl)cc1)[C@@H]1C[C@@H](O)CN1C(=O)c1cccc(Br)c1` [VL076] came in with an IC50 of 19.6 µM.

Turning to `O=C(NCc1ccc(Cl)cc1)[C@@H]1C[C@@H](O)CN1C(=O)Cc1c[nH]cn1` [VL120], the IC50 at VHL [2] (IC50 (μM) 1% DMSO, 1% DMSO) is greater than 1000 µM; on VHL [2] (IC50 (μM) 10% DMSO, 10% DMSO), greater than 1000 µM. Regarding `Cc1cc(CC(=O)N2C[C@H](O)C[C@H]2C(=O)NCc2cccc(C(F)(F)F)c2)on1` [VL022], on VHL [2] (IC50 (μM) 10% DMSO, 10% DMSO), the IC50 is roughly 870 µM. Still for that read-out and setting: as for `COc1cccc(C(=O)N2C[C@H](O)C[C@H]2C(=O)NCc2ccc(Cl)cc2)c1` [VL079], the figure is 26.3 µM; as for `N#CCC(=O)N1C[C@H](O)C[C@H]1C(=O)NCc1ccc(Cl)cc1` [VL051], greater than 1000 µM.

With `Cc1cc(CC(=O)N2C[C@H](O)C[C@H]2C(=O)NCc2cccc(-c3scnc3C)c2)on1` [VL115], the IC50 was found to be 19 µM at VHL [2] (IC50 (μM) 1% DMSO, 1% DMSO) and 17 µM at VHL [2] (IC50 (μM) 10% DMSO, 10% DMSO).

As for `Cc1cc(CCN2C[C@H](O)C[C@H]2C(=O)NCc2ccc(-c3ccccc3)cc2)on1` [VL145], the half-maximal inhibitory concentration (IC50) at VHL [2] (IC50 (μM) 1% DMSO, 1% DMSO) was greater than 1000 µM; on VHL [2] (IC50 (μM) 10% DMSO, 10% DMSO) it was greater than 1000 µM. `O=C(NCc1ccc(Cl)cc1)[C@@H]1C[C@@H](O)CN1C(=O)c1ccccn1` [VL098] yielded an IC50 at VHL [2] (IC50 (μM) 10% DMSO, 10% DMSO) of 244 µM. As for `COC(=O)Cc1cn(CC(=O)N2C[C@H](O)C[C@H]2C(=O)NCc2ccc(-c3ccccc3)cc2)nn1` [VL136], the IC50 on VHL [2] (IC50 (μM) 1% DMSO, 1% DMSO) worked out at 540 µM; at VHL [2] (IC50 (μM) 10% DMSO, 10% DMSO), 28.2 µM. For the molecule `Cc1cc(CC(=O)N2C[C@H](O)C[C@H]2C(=O)N(C)Cc2ccc(Cl)cc2)on1` [VL147], the half-maximal inhibitory concentration (IC50) at VHL [2] (IC50 (μM) 1% DMSO, 1% DMSO) is greater than 1000 µM; at VHL [2] (IC50 (μM) 10% DMSO, 10% DMSO) it was greater than 1000 µM. Consider `O=C(NCc1ccc(Cl)cc1)[C@@H]1C[C@@H](O)CN1C(=O)c1ccccc1` [VL064], for which the IC50 on VHL [2] (IC50 (μM) 10% DMSO, 10% DMSO) turned out to be 110 µM. The molecule `O=C(NCc1ccc(Cl)cc1)[C@@H]1C[C@@H](O)CN1C(=O)c1cccc(O)c1` [VL080] had an IC50 on VHL [2] (IC50 (μM) 10% DMSO, 10% DMSO) of 17 µM. Compared with the last molecule, the IC50 is about 6.5-fold lower.

In turn, `Cc1cc(CC(=O)N2C[C@H](O)C[C@H]2C(=O)N[C@@H](C)c2ccc([N+](=O)[O-])cc2)on1` [VL049] returned a half-inhibitory concentration (IC50) on VHL [2] (IC50 (μM) 10% DMSO, 10% DMSO) of 15.1 µM.
